Read-outs that look alike come from different tables or passages of the source.
Biological target: human recombinant TAK1-TAB1 Kinase (TAK1 (1-303) and TAB1 (437-end)) (Homo sapiens (Human), UniProt O43318)
Test: TAK1 biochemical ADP-Glo kinase assay
Conditions: MBP substrate
Experimental: The usefulness of the example compounds of the invention as TAK1 inhibitors was evaluated in a biochemical ADP-Glo kinase assay. Assay kits from Promega Corporation V4089 were used according to manufacturer's instructions and adapted as outlined here. ADP-Glo Kinase Assay kit contains ADP-Glo Reagent, Kinase Detection Reagent, kinase detection buffer, ATP, and ADP. The Kinase Enzyme Systems include human recombinant TAK1-TAB1 Kinase (TAK1 (1-303) and TAB1 (437-end)), Native Swine Myelin Basic Protein (MBP) substrate, 5×kinase reaction buffer, and DTT.
Test compounds were prepared in 1:5 serial dilutions at 8 concentrations in DMSO from 10 mM stock solutions. An additional 20-fold dilution in 1× kinase reaction buffer (see below) was performed, yielding a final dilution series in kinase buffer with 5% DMSO (final concentration in assay from 20 μM to 0.26 nM, 1% DMSO). As controls, Takinib was prepared as positive control (3 μM final in assay), and DMSO without inhibitor served as negative control, at a final assay concentration of DMSO of 1%.
One μl of compound solution in 5% DMSO was added to each well in a 384 well microtiter plate (OptiPlate #6007290). Two μl TAK1-TAB1 (7.5 ng/μl) in lxkinase reaction buffer ([…] Tris base pH 7.5, 20 mM MgCl2, 50 μM DTT, 0.1 mg/ml BSA) was added and pre-incubated 10 min before adding 2 μl of a mixture of MBP substrate and ATP (0.25 μg/μL MBP/25 μM ATP or 0.25 μg/μL MBP/2.5 mM ATP) in 1× kinase reaction buffer (as above). The plate was subsequently incubated at room temperature for 1 hour. Then 5 μl ADP-Glo™ reagent from ADP-Glo™ kit (as above) was added and incubated for 40 min to stop the reaction and consume remaining ATP. Ten μl kinase detection substrate (dissolved in kinase detection buffer, both from ADP-Glo™ kit as above) was then added to convert ADP to ATP and detect ATP with luciferase/luciferin. The plate was incubated for 30 minutes at room temperature in dark before reading luminescence on an Envision (PerkinElmer) reader.
IC50 values of compounds of the invention were determined by the non-linear regression analysis of dose response curves.

[1] = 10 μM ATP, read-out: TAK1 Mean IC50 (nM) @ 10 μM ATP
[2] = 1 mM ATP, read-out: TAK1 Mean IC50 (nM) @ 1 mM ATP

human recombinant TAK1-TAB1 Kinase (TAK1 (1-303) and TAB1 (437-end)), sequence (O43318 other isoform, or with tags, fused parts or gaps): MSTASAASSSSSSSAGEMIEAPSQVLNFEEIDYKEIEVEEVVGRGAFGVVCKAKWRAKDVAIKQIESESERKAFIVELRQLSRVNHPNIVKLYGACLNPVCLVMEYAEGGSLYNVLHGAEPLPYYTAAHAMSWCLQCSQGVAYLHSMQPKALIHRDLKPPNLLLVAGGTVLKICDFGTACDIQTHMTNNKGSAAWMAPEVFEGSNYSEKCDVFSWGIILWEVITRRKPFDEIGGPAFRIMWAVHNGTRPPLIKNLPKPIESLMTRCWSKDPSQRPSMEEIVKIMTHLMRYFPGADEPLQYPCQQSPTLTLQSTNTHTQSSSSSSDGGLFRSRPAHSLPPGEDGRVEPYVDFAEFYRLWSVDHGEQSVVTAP

IC50 [1] [nM]	IC50 [2] [nM]	Compound
3	14	CC1CCCCNC(=O)c2cccc(c2)C(=O)Nc2nc3cccc(C(=O)N(C)C)c3n21 (single isomer, unassigned) [Example 31, (E)-N,N,11-trimethyl-3,5-dioxo-1^2,1^3-dihydro-1^1H-2,6-diaza-1(2,1)-benzo[d]imidazola-4(1,3)-benzenacycloundecaphane-1^7-carboxamide]
5	–	CC1CCCCNC(=O)c2cccc(c2)C(=O)Nc2nc3cccc(-c4ccc[nH]c4=O)c3n21 (single isomer, unassigned) [Example 35, (E)-11-methyl-1^7-(2-oxo-1,2-dihydropyridin-3-yl)-1^2,1^3-dihydro-1^1H-2,6-diaza-1(2,1)-benzo[d]imidazola-4(1,3)-benzenacycloundecaphane-3,5-dione]
6	–	CC1CCCCNC(=O)c2cccc(c2)C(=O)Nc2nc3cccc(-c4ccc[nH]c4=O)c3n21 (single isomer, unassigned) [Example 36, (E)-11-methyl-1^7-(2-oxo-1,2-dihydropyridin-3-yl)-1^2,1^3-dihydro-1^1H-2,6-diaza-1(2,1)-benzo[d]imidazola-4(1,3)-benzenacycloundecaphane-3,5-dione]
258	–	C[C@H]1CCCCNC(=O)c2cccc(c2)C(=O)Nc2nc3ccc(Cl)c(C(=O)N(C)C)c3n21 (single isomer, unassigned) [Example 53]
4	–	CC1CCCCNC(=O)c2cccc(c2)C(=O)/N=C2\Nc3cccc(C4CCCNC4=O)c3N21 (single isomer, unassigned) [Example 58, (E)-11-methyl-1^7-(2-oxopiperidin-3-yl)-1^2,1^3-dihydro-1^1H-2,6-diaza-1(2,1)-benzo[d]imidazola-4(1,3)-benzenacycloundecaphane-3,5-dione]
4	–	CC1CCCCNC(=O)c2cccc(c2)C(=O)/N=C2\Nc3cccc(C4CCCNC4=O)c3N21 (single isomer, unassigned) [Example 59, (E)-11-methyl-1^7-(2-oxopiperidin-3-yl)-1^2,1^3-dihydro-1^1H-2,6-diaza-1(2,1)-benzo[d]imidazola-4(1,3)-benzenacycloundecaphane-3,5-dione]
5	–	CC1CCCCNC(=O)c2cccc(c2)C(=O)/N=C2\Nc3cccc(C4CCCNC4=O)c3N21 (single isomer, unassigned) [Example 60, (E)-11-methyl-1^7-(2-oxopiperidin-3-yl)-1^2,1^3-dihydro-1^1H-2,6-diaza-1(2,1)-benzo[d]imidazola-4(1,3)-benzenacycloundecaphane-3,5-dione]
4	–	CC1CCCCNC(=O)c2cccc(c2)C(=O)/N=C2\Nc3cccc(C4CCCNC4=O)c3N21 (single isomer, unassigned) [Example 61, (E)-11-methyl-1^7-(2-oxopiperidin-3-yl)-1^2,1^3-dihydro-1^1H-2,6-diaza-1(2,1)-benzo[d]imidazola-4(1,3)-benzenacycloundecaphane-3,5-dione]
12	–	CC1CCCCNC(=O)c2cccc(c2)C(=O)/N=C2\Nc3cccc(-c4cc[nH]c(=O)c4)c3N21 (single isomer, unassigned) [Example 62, (E)-11-methyl-1^7-(2-oxo-1,2-dihydropyridin-4-yl)-1^2,1^3-dihydro-1^1H-2,6-diaza-1(2,1)-benzo[d]imidazola-4(1,3)-benzenacycloundecaphane-3,5-dione]
8	–	CC1CCCCNC(=O)c2cccc(c2)C(=O)/N=C2\Nc3cccc(-c4cc[nH]c(=O)c4)c3N21 (single isomer, unassigned) [Example 63, (E)-11-methyl-1^7-(2-oxo-1,2-dihydropyridin-4-yl)-1^2,1^3-dihydro-1^1H-2,6-diaza-1(2,1)-benzo[d]imidazola-4(1,3)-benzenacycloundecaphane-3,5-dione]
5	–	CCC1CCCCNC(=O)c2cccc(c2)C(=O)Nc2nc3cccc(C(=O)N(C)C)c3n21 (single isomer, unassigned) [Example 67, (E)-11-ethyl-N,N-dimethyl-3,5-dioxo-1^2,1^3-dihydro-1^1H-2,6-diaza-1(2,1)-benzo[d]imidazola-4(1,3)-benzenacycloundecaphane-1^7-carboxamide]
4	–	CCC1CCCCNC(=O)c2cccc(c2)C(=O)Nc2nc3cccc(C(=O)N(C)C)c3n21 (single isomer, unassigned) [Example 68, (E)-11-ethyl-N,N-dimethyl-3,5-dioxo-1^2,1^3-dihydro-1^1H-2,6-diaza-1(2,1)-benzo[d]imidazola-4(1,3)-benzenacycloundecaphane-1^7-carboxamide]
6	27	CC1CCCCNC(=O)c2cccc(c2)C(=O)/N=C2\Nc3cccc(C(=O)N(C)CCF)c3N21 (single isomer, unassigned) [Example 71, (E)-N-(2-fluoroethyl)-N,11-dimethyl-3,5-dioxo-1^2,1^3-dihydro-1^1H-2,6-diaza-1(2,1)-benzo[d]imidazola-4(1,3)-benzenacycloundecaphane-1^7-carboxamide]
7	–	CC1CCCCNC(=O)c2cccc(c2)C(=O)/N=C2\Nc3cccc(C(=O)N(C)CC(F)F)c3N21 (single isomer, unassigned) [Example 72, (E)-N-(2,2-difluoroethyl)-N,11-dimethyl-3,5-dioxo-1^2,1^3-dihydro-1^1H-2,6-diaza-1(2,1)-benzo[d]imidazola-4(1,3)-benzenacycloundecaphane-1^7-carboxamide]
5	–	CC1CCCCNC(=O)c2cccc(c2)C(=O)/N=C2\Nc3cccc(C(=O)N(C)CC(F)F)c3N21 (single isomer, unassigned) [Example 73, (E)-N-(2,2-difluoroethyl)-N,11-dimethyl-3,5-dioxo-1^2,1^3-dihydro-1^1H-2,6-diaza-1(2,1)-benzo[d]imidazola-4(1,3)-benzenacycloundecaphane-1^7-carboxamide]
11	–	CC1CCCCNC(=O)c2cccc(c2)C(=O)/N=C2\Nc3cccc(C(=O)N4CCOC[C@H]4C)c3N21 (single isomer, unassigned) [Example 75]
5	–	CC1CCCCNC(=O)c2cccc(c2)C(=O)/N=C2\Nc3cccc(C(=O)N4CCOC[C@@H]4C)c3N21 (single isomer, unassigned) [Example 77]
6	–	COC1CN(C(=O)c2cccc3c2N2/C(=N/C(=O)c4cccc(c4)C(=O)NCCCCC2C)N3)C1 (single isomer, unassigned) [Example 81, (E)-1^7-(3-methoxyazetidine-1-carbonyl)-11-methyl-1^2,1^3-dihydro-1^1H-2,6-diaza-1(2,1)-benzo[d]imidazola-4(1,3)-benzenacycloundecaphane-3,5-dione]
7	–	COC1CN(C(=O)c2cccc3c2N2/C(=N/C(=O)c4cccc(c4)C(=O)NCCCCC2C)N3)C1 (single isomer, unassigned) [Example 82, (E)-1^7-(3-methoxyazetidine-1-carbonyl)-11-methyl-1^2,1^3-dihydro-1^1H-2,6-diaza-1(2,1)-benzo[d]imidazola-4(1,3)-benzenacycloundecaphane-3,5-dione]
9	–	CC1CCCCNC(=O)c2cccc(c2)C(=O)/N=C2\Nc3cccc(C(=O)N4CC[C@H](F)C4)c3N21 (single isomer, unassigned) [Example 88]
5	19	CC1CCCCNC(=O)c2cccc(c2)C(=O)Nc2nc3cccc(-c4nccn4C(F)F)c3n21 (single isomer, unassigned) [Example 91, (E)-1^7-(1-(difluoromethyl)-1H-imidazol-2-yl)-11-methyl-1^2,1^3-dihydro-1^1H-2,6-diaza-1(2,1)-benzo[d]imidazola-4(1,3)-benzenacycloundecaphane-3,5-dione]
6	–	CC1CCCCNC(=O)c2cccc(c2)C(=O)/N=C2\Nc3cccc(C(=O)N4CC[C@@H](F)C4)c3N21 (single isomer, unassigned) [Example 92]
6	–	CC1CCCCNC(=O)c2cccc(c2)C(=O)/N=C2\Nc3cccc(C(=O)N4CC[C@@H](F)C4)c3N21 (single isomer, unassigned) [Example 93]

Compound	IC50 [1] [nM]	IC50 [2] [nM]
CC1CCCCNC(=O)c2cccc(c2)C(=O)/N=C2\Nc3cccc(C(=O)N4CC5(CCO5)C4)c3N21 (single isomer, unassigned) [Example 80, (E)-11-methyl-1^7-(1-oxa-6-azaspiro[3.3]heptane-6-carbonyl)-1^2,1^3-dihydro-1^1H-2,6-diaza-1(2,1)-benzo[d]imidazola-4(1,3)-benzenacycloundecaphane-3,5-dione]	5	–

Source: patent US20240279233A1, “MACROCYCLIC TAK1 INHIBITORS” (Aqilion AB, priority 2021, published 2024)
